# Test results taken from PubChem BioAssay (NCI).
#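 48-hour exposure; five concentrations; linearly interpolated endpoints. GI50 marks 50% less growth. TGI: total growth inhibition.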
# What was measured:
# Experiment in all cases: NCI-60 cell line screen, 48 h
# MOLT-4 leukemia = tested on: MOLT-4 leukemia
# SNB-19 CNS = tested on: SNB-19 CNS
# K-562 leukemia = tested on: K-562 leukemia
# UO-31 renal = tested on: UO-31 renal
# SF-295 CNS = tested on: SF-295 CNS
# HCT-15 colon = tested on: HCT-15 colon
# NCI-H460 lung = tested on: NCI-H460 lung
# OVCAR-3 ovarian = tested on: OVCAR-3 ovarian
# RXF 393 renal = tested on: RXF 393 renal
# SF-539 CNS = tested on: SF-539 CNS
# U251 CNS = tested on: U251 CNS
# MDA-MB-435 = tested on: MDA-MB-435
# HOP-92 NSCLC = tested on: HOP-92 NSCLC
SMILES,TGI (MOLT-4 leukemia) [µM],TGI (SNB-19 CNS) [µM],TGI (K-562 leukemia) [µM],TGI (UO-31 renal) [µM],TGI (SF-295 CNS) [µM],TGI (HCT-15 colon) [µM],TGI (NCI-H460 lung) [µM],TGI (OVCAR-3 ovarian) [µM],TGI (RXF 393 renal) [µM],TGI (SF-539 CNS) [µM],TGI (U251 CNS) [µM],TGI (MDA-MB-435) [µM],TGI (HOP-92 NSCLC) [µM],GI50 (MOLT-4 leukemia) [µM],GI50 (MDA-MB-435) [µM],GI50 (SNB-19 CNS) [µM],GI50 (K-562 leukemia) [µM],GI50 (HOP-92 NSCLC) [µM],GI50 (HCT-15 colon) [µM],GI50 (RXF 393 renal) [µM]
CCOC(=O)c1c(NC(=S)Nc2ccc(C)cc2)sc2c1CCN(C)C2,> 100,> 100,> 100,> 100,> 100,> 100,> 100,> 100,> 100,> 100,,,,,,,,,,
CCOC(=O)C(NC(=O)c1ccc(N=NN(C)C)cc1)C(C)C (stereo unspecified),> 100,> 100,> 100,> 100,> 100,> 100,> 100,> 100,,> 100,> 100,,,,,,,,,
C=C1CC=CC(C)(C)C1C/C=C(\C)C(O)CBr (stereo unspecified),> 100,> 100,> 100,> 100,> 100,> 100,> 100,,> 100,> 100,> 100,> 100,> 100,,,,,,,
COC(=O)/C=C\S/C(=C(/c1ccccc1)n1ccc(C(=O)OC)n1)c1ccccc1,> 100,42.2,> 100,38.7,> 100,> 100,> 100,,39.8,> 100,38.2,> 100,86.2,,,,,,,
COc1cc2c(cc1O)CC[n+]1cc3c(OC)c(OC)ccc3cc1-2,> 100,> 100,> 100,> 100,> 100,> 100,> 100,> 100,,> 100,> 100,> 100,> 100,,,,,,,
COc1ccc(CN2C(=O)C(=O)N(C)C2=O)c2ccccc12,> 10,> 10,> 10,> 10,> 10,> 10,> 10,> 10,> 10,> 10,> 10,> 10,,,,,,,,
O=C1c2c(c3c4ccc(Br)cc4oc3c3[nH]c4ccccc4c23)C(=O)N1O,> 100,> 100,> 100,,,> 100,,,6.34,,,> 100,4.45,0.308,3.11,2.14,2.07,1.74,2.13,2.1
NS(=O)(=O)c1nnc(NSc2ccc([N+](=O)[O-])cc2)s1,> 100,> 100,> 100,> 100,> 100,> 100,> 100,> 100,> 100,,> 100,> 100,> 100,,,,,,,
CC1=C(C(=O)NNC(=O)CC#N)CC(C(=O)NNC(=O)CC#N)=C(C)N1,> 100,> 100,,> 100,> 100,> 100,> 100,> 100,> 100,> 100,> 100,> 100,> 100,,,,,,,
CN1c2ccccc2C(=O)NC12CCN(CC1COc3ccccc3O1)CC2 (stereo unspecified),77.1,> 100,> 100,> 100,> 100,,> 100,,> 100,> 100,> 100,> 100,71.3,,,,,,,
Cc1cccc(NC(Nc2cccc(C)c2)=C(C(Cl)=C(Cl)Cl)[N+](=O)[O-])c1,> 20,> 63,> 100,26.4,> 66.8,33.1,> 62.5,44.6,22.8,23.4,36.3,28.7,,,,,,,,
O=C(NN1C(=O)CSC1c1ccc(Cl)c(Cl)c1)c1ccncc1 (stereo unspecified),> 100,> 100,> 100,> 100,> 100,> 100,,,> 100,> 100,> 100,,,,,,,,,
OC(c1ccco1)C(F)(F)c1nc2ccccc2o1 (stereo unspecified),> 100,> 100,> 100,> 100,> 100,> 100,> 100,,> 100,> 100,> 100,> 100,> 100,,,,,,,
NNC(=O)c1cccc2c1Oc1ccccc1S2,> 100,> 100,> 100,> 100,> 100,> 100,> 100,,> 100,> 100,> 100,> 100,> 100,,,,,,,
COC(=O)C1=C(C(=O)OC)C2(C)CCC(=O)C1O2 (stereo unspecified),> 10,> 10,> 10,> 10,> 10,> 10,> 10,> 10,> 10,> 10,> 10,> 10,,,,,,,,
Brc1ccc2c(c1)-c1nc3c(cc1CC2)CCc1ccc(Br)cc1-3,> 100,> 100,> 100,> 100,> 100,> 100,> 100,> 100,> 100,,> 100,> 100,> 100,,,,,,,
COC1OC2COC(C)(C)OC2C2OC(C)(C)OC12 (stereo unspecified),87.9,54.4,> 100,> 100,> 100,> 100,,> 100,> 100,,> 100,> 100,,,,,,,,
CCCC[C@@H]1CCN2C[C@@H](O)[C@@H](O)[C@H]2[C@@H]1O,> 100,> 100,> 100,> 100,> 100,> 100,> 100,> 100,,> 100,> 100,> 100,> 100,,,,,,,
CCOC(=O)c1ccc(C(=O)/C(C(=O)OC(C)(C)C)=C2\CCCN2C)n1C,> 100,> 100,> 100,> 100,> 100,> 100,> 100,> 100,> 100,> 100,> 100,> 100,,,,,,,,

SMILES,TGI (MOLT-4 leukemia) [µM],TGI (SNB-19 CNS) [µM],TGI (K-562 leukemia) [µM],TGI (UO-31 renal) [µM],TGI (SF-295 CNS) [µM],TGI (HCT-15 colon) [µM],TGI (NCI-H460 lung) [µM],TGI (OVCAR-3 ovarian) [µM],TGI (RXF 393 renal) [µM],TGI (SF-539 CNS) [µM],TGI (U251 CNS) [µM],TGI (MDA-MB-435) [µM],TGI (HOP-92 NSCLC) [µM],GI50 (MOLT-4 leukemia) [µM],GI50 (MDA-MB-435) [µM],GI50 (SNB-19 CNS) [µM],GI50 (K-562 leukemia) [µM],GI50 (HOP-92 NSCLC) [µM],GI50 (HCT-15 colon) [µM],GI50 (RXF 393 renal) [µM]
O=c1oc2ccccc2c2nc3ccccc3cc12,> 100,70.3,> 100,> 100,> 100,> 100,> 100,,91.3,27.4,87.9,> 100,90.1,,,,,,,
CC1OC(n2cc(F)c(=O)[nH]c2=O)C(O[Si](C)(C)C(C)(C)C)C1O[Si](C)(C)C(C)(C)C (stereo unspecified),> 100,30.1,36.1,25.4,27.1,25.6,,37.3,29.5,28.7,26.9,34.5,,,,,,,,
COc1cc(CCCOC2OC(COC3OCC(O)C(O)C3O)C(O)C(O)C2O)cc2cc(-c3ccc4c(c3)OCO4)oc12 (stereo unspecified),> 175,> 175,> 175,> 175,> 175,> 175,> 175,> 175,> 114,> 175,> 175,,> 175,,,,,,,
CCN(CC)C(=S)SS(=O)(=O)c1ccc(C)cc1,,> 100,> 100,51.2,> 100,> 100,> 100,> 100,33.4,39,69.6,> 100,,,,,,,,
C[C@@H]1C(=O)CC2(O)[C@@]13C[C@@H](OC(=O)[C@@H]3O)[C@@H](C)[C@@]21COC1=O (stereo partly specified),> 100,> 100,> 100,> 100,> 100,> 100,> 100,> 100,> 100,> 100,> 100,> 100,,,,,,,,
CC12CCC(C/C1=N\NC(N)=O)C2(C)C (stereo unspecified),> 100,> 100,> 100,> 100,> 100,> 100,> 100,> 100,,,> 100,> 100,> 100,,,,,,,
Cc1cc(C)nc(NS(=O)(=O)c2ccc(Nc3c4ccccc4nc4c(C(=O)NCCO)cccc34)cc2)n1,> 100,> 100,> 100,,53.5,46,> 100,> 100,,,> 100,40.7,> 100,,,,,,,
COc1cc2c(cc1OCCCOc1cc3c(cc1OC)C(=O)N1CCC[C@H]1CN3)N=C[C@@H]1CCCN1C2=O,0.148,> 100,0.483,> 100,0.671,> 24.5,,0.342,2.55,0.411,,0.29,,,,,,,,
O=C(NCCCNCCCCNCCCNC(=O)C(F)(F)F)C(F)(F)F,,,,> 100,> 100,> 100,> 100,> 100,> 100,> 100,> 100,> 100,,,,,,,,
COc1cc(OC)c(C2c3cc4c(cc3OC(N3CCOCC3)C2C)OCO4)c(OC)c1 (stereo unspecified),> 100,> 100,> 100,> 100,> 100,> 100,> 100,> 100,,> 100,,> 100,,,,,,,,
COC(=O)c1cc(C(=O)OC)cc(-c2ccc3c(c2)-c2nc4c(c(-c5ccc(OC)cc5)c2CC3)CCc2ccc(-c3cc(C(=O)OC)cc(C(=O)OC)c3)cc2-4)c1,,> 100,1.06,> 100,> 100,> 100,> 100,> 100,,,> 100,> 100,> 100,,,,,,,
CCC1C(=O)OCc2c1cc1n(c2=O)CCC12OCCO2 (stereo unspecified),> 100,> 100,> 100,> 100,> 100,> 100,> 100,,,> 100,> 100,,> 100,,,,,,,
Cc1ccc2c(c1)C(=O)/C(=C\c1ccc(Cl)cc1)CCS2(=O)=O,9.79,6.82,3.32,9.02,17.9,5.01,5.02,19.5,,4.52,9.09,23.3,18.3,,,,,,,
CCNC(=S)N/N=C/c1ccccn1,> 100,> 100,> 100,23.6,> 100,> 100,27.8,,> 100,29.7,75,> 100,,,,,,,,
CCOP(=O)(OCC)c1cc(-c2ccccc2)ccc1N,> 100,> 100,> 100,> 100,> 100,> 100,> 100,> 100,> 100,,> 100,> 100,> 100,,,,,,,
C=C1CC2C(=O)N(c3ccccc3)C(=O)C2CC1n1[nH]c(=O)n(Cc2ccccc2)c1=O (stereo unspecified),> 100,> 100,> 100,> 100,> 100,> 100,> 100,> 100,> 100,> 100,> 100,,> 100,,,,,,,
CC/C=C\C/C=C\C/C=C\CCCCCCCC(=O)OC(COC(=O)CCCCCCCCCCCCCCCCC)COC1OC(CO)C(O)C(O)C1O (stereo unspecified),> 25,> 25,> 25,> 25,> 25,> 25,> 25,> 25,> 25,,> 25,> 25,> 25,,,,,,,
CC1(C)[C@@H]2C[C@H]1c1cnc(-c3ccccn3)cc1[C@H]2C(O)[C@@H]1c2cc(-c3ccccn3)ncc2[C@H]2C[C@@H]1C2(C)C (stereo partly specified),0.505,15.5,> 52,0.445,11.4,25.2,24.3,1.77,1.62,,7.45,> 38.5,21.8,,,,,,,
NC(=S)N=Nc1c(O)cc(Nc2ccc(Cl)cc2Cl)c2ccccc12,> 100,88.6,,> 100,45.9,> 100,> 100,54.4,51.4,53.4,38.2,> 100,52.4,,,,,,,
